# Key:
# cocklebur = assay: Test B pre/postemergence cocklebur; assay type: in vivo, Xanthium strumarium
# Outline: (§1)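 Response is a visual 0-to-10 score relative to untreated plants, where 0 means no effect and 10 means complete control, taken twelve to sixteen days after application. Treatments went onto soil at planting and onto foliage of 1- to 4-leaf plants, using a surfactant-containing non-phytotoxic solvent.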
# sugar beet = assay: Test B pre/postemergence sugar beet; assay type: in vivo, Beta vulgaris
# Outline: as §1
# crabgrass = assay: Test B pre/postemergence crabgrass; assay type: in vivo, Digitaria sanguinalis
# Outline: as §1
# wild oat = assay: Test B pre/postemergence wild oat; assay type: in vivo, Avena fatua
# Outline: as §1
# bedstraw = assay: Test B pre/postemergence bedstraw; assay type: in vivo, Galium aparine
# Outline: as §1
# corn = assay: Test B pre/postemergence corn; assay type: in vivo, Zea mays
# Outline: as §1
# blackgrass = assay: Test B pre/postemergence blackgrass; assay type: in vivo, Alopecurus myosuroides
# Outline: as §1
# purple nutsedge = assay: Test B pre/postemergence purple nutsedge; assay type: in vivo, Cyperus rotundus
# Outline: as §1
# velvetleaf = assay: Test B pre/postemergence velvetleaf; assay type: in vivo, Abutilon theophrasti
# Outline: as §1
# giant foxtail = assay: Test B pre/postemergence giant foxtail; assay type: in vivo, Setaria faberii
# Outline: as §1
# pigweed = assay: Test B pre/postemergence pigweed; assay type: in vivo, Amaranthus retroflexus
# Outline: as §1
# soybean = assay: Test B pre/postemergence soybean; assay type: in vivo, Glycine max
# Outline: as §1
# morningglory = assay: Test B pre/postemergence morningglory; assay type: in vivo, Ipomoea hederacea
# Outline: as §1
# wheat = assay: Test B pre/postemergence wheat; assay type: in vivo, Triticum aestivum
# Outline: as §1
# rape = assay: Test B pre/postemergence rape; assay type: in vivo, Brassica napus
# Outline: as §1
# surinam grass = assay: Test B pre/postemergence surinam grass; assay type: in vivo, Brachiaria decumbens
# Outline: as §1
# [1] = Postemergence, Rate 62 g/ha, scale 0 to 10, 0 is no effect, 10 is complete control
# [2] = Postemergence, Rate 125 g/ha, scale of 0 to 10 where 0 is no effect and 10 is complete control
# [3] = Preemergence, Rate 125 g/ha, scale of 0 to 10 where 0 is no effect and 10 is complete control
# [4] = Preemergence, Rate 250 g/ha, scale 0 (no effect) to 10 (complete control)
# [5] = Rate 62 g/ha, Preemergence, scale 0 to 10
# [6] = Rate 250 g/ha, Postemergence, scale 0 to 10, 0 is no effect, 10 is complete control
# [7] = Rate 500 g/ha, Postemergence, scale 0 to 10, 0 is no effect, 10 is complete control
# [8] = Rate 500 g/ha, Preemergence, scale 0 to 10 (0 no effect, 10 complete control)
structure (smiles),measurement,setting,value
C#CCn1c(=O)on(C(=O)N(c2ccc(F)cc2)C(C)C)c1=O [Compound 743],"Plant response rating, Cocklebur",cocklebur; [1],0
same,Cocklebur plant response rating,cocklebur; [2],0
same,"Plant response rating, Cocklebur",cocklebur; [3],0
same,Cocklebur plant response rating,cocklebur; [4],0
same,Cocklebur plant response rating,cocklebur; [5],0
same,Cocklebur plant response rating,cocklebur; [6],0
same,Cocklebur plant response rating,cocklebur; [7],3
same,Cocklebur plant response rating,cocklebur; [8],10
same,"Plant response rating, Sugarbeets",sugar beet; [1],0
same,Sugarbeets plant response rating,sugar beet; [2],0
same,"Plant response rating, Sugarbeets",sugar beet; [3],2
same,Sugarbeets plant response rating,sugar beet; [4],4
same,Sugarbeets plant response rating,sugar beet; [5],0
same,Sugarbeets plant response rating,sugar beet; [6],4
same,Sugarbeets plant response rating,sugar beet; [7],4
same,Sugarbeets plant response rating,sugar beet; [8],6
same,"Plant response rating, Crabgrass",crabgrass; [1],2
same,Crabgrass plant response rating,crabgrass; [2],5
same,"Plant response rating, Crabgrass",crabgrass; [3],9
same,Crabgrass plant response rating,crabgrass; [4],9
same,Crabgrass plant response rating,crabgrass; [5],9
same,Crabgrass plant response rating,crabgrass; [6],7
same,Crabgrass plant response rating,crabgrass; [7],9
same,Crabgrass plant response rating,crabgrass; [8],9
same,"Plant response rating, Wild oats",wild oat; [1],0
same,Wild oats plant response rating,wild oat; [2],0
same,"Plant response rating, Wild oats",wild oat; [3],5
same,Wild oats plant response rating,wild oat; [4],5
same,Wild oats plant response rating,wild oat; [5],5
same,Wild oats plant response rating,wild oat; [6],0
same,Wild oats plant response rating,wild oat; [7],3
same,Wild oats plant response rating,wild oat; [8],9
same,"Plant response rating, Bedstraw",bedstraw; [1],0
same,Bedstraw plant response rating,bedstraw; [2],0
same,"Plant response rating, Bedstraw",bedstraw; [3],0
same,Bedstraw plant response rating,bedstraw; [4],0
same,Bedstraw plant response rating,bedstraw; [5],0
same,Bedstraw plant response rating,bedstraw; [6],4
same,Bedstraw plant response rating,bedstraw; [7],8
same,Bedstraw plant response rating,bedstraw; [8],8
same,"Plant response rating, Corn",corn; [1],0
same,Corn plant response rating,corn; [2],0
same,"Plant response rating, Corn",corn; [3],0
same,Corn plant response rating,corn; [4],0
same,Corn plant response rating,corn; [5],0
same,Corn plant response rating,corn; [6],0
same,Corn plant response rating,corn; [7],0
same,Corn plant response rating,corn; [8],0
same,"Plant response rating, Blackgrass",blackgrass; [1],3
same,Blackgrass plant response rating,blackgrass; [2],5
same,"Plant response rating, Blackgrass",blackgrass; [3],8
same,Blackgrass plant response rating,blackgrass; [4],9
same,Blackgrass plant response rating,blackgrass; [5],8
same,Blackgrass plant response rating,blackgrass; [6],5
same,Blackgrass plant response rating,blackgrass; [7],5
same,Blackgrass plant response rating,blackgrass; [8],9
same,"Plant response rating, Nutsedge",purple nutsedge; [1],0
same,Nutsedge plant response rating,purple nutsedge; [2],2
same,Nutsedge plant response rating,purple nutsedge; [4],2
same,Nutsedge plant response rating,purple nutsedge; [5],0
same,Nutsedge plant response rating,purple nutsedge; [6],3
same,Nutsedge plant response rating,purple nutsedge; [7],9
same,Nutsedge plant response rating,purple nutsedge; [8],9
same,"Plant response rating, Velvetleaf",velvetleaf; [1],0
same,Velvetleaf plant response rating,velvetleaf; [2],0
same,"Plant response rating, Velvetleaf",velvetleaf; [3],2
same,Velvetleaf plant response rating,velvetleaf; [4],3
same,Velvetleaf plant response rating,velvetleaf; [5],0
same,Velvetleaf plant response rating,velvetleaf; [6],0
same,Velvetleaf plant response rating,velvetleaf; [7],4
same,Velvetleaf plant response rating,velvetleaf; [8],3
same,"Plant response rating, Giant foxtail",giant foxtail; [1],7
same,Giant foxtail plant response rating,giant foxtail; [2],7
same,"Plant response rating, Giant foxtail",giant foxtail; [3],9
same,Giant foxtail plant response rating,giant foxtail; [4],9
same,Giant foxtail plant response rating,giant foxtail; [5],9
same,Giant foxtail plant response rating,giant foxtail; [6],8
same,Giant foxtail plant response rating,giant foxtail; [7],8
same,Giant foxtail plant response rating,giant foxtail; [8],9
same,"Plant response rating, Redroot pigweed",pigweed; [1],0
same,Redroot pigweed plant response rating,pigweed; [2],0
same,"Plant response rating, Redroot pigweed",pigweed; [3],9
same,Redroot pigweed plant response rating,pigweed; [4],9
same,Redroot pigweed plant response rating,pigweed; [5],7
same,Redroot pigweed plant response rating,pigweed; [6],5
same,Redroot pigweed plant response rating,pigweed; [7],8
same,Redroot pigweed plant response rating,pigweed; [8],10
same,"Plant response rating, Soybean",soybean; [1],0
same,Soybean plant response rating,soybean; [2],0
same,"Plant response rating, Soybean",soybean; [3],0
same,Soybean plant response rating,soybean; [4],0
same,Soybean plant response rating,soybean; [5],0
same,Soybean plant response rating,soybean; [6],4
same,Soybean plant response rating,soybean; [7],4
same,Soybean plant response rating,soybean; [8],0
same,"Plant response rating, Morningglory",morningglory; [1],5
same,Morningglory plant response rating,morningglory; [2],3
same,"Plant response rating, Morningglory",morningglory; [3],0
same,Morningglory plant response rating,morningglory; [4],0
same,Morningglory plant response rating,morningglory; [5],0
same,Morningglory plant response rating,morningglory; [6],2
same,Morningglory plant response rating,morningglory; [7],10
same,Morningglory plant response rating,morningglory; [8],0
same,"Plant response rating, Wheat",wheat; [1],0
same,Wheat plant response rating,wheat; [2],0
same,"Plant response rating, Wheat",wheat; [3],0
same,Wheat plant response rating,wheat; [4],0
same,Wheat plant response rating,wheat; [5],0
same,Wheat plant response rating,wheat; [6],3
same,Wheat plant response rating,wheat; [7],6
same,Wheat plant response rating,wheat; [8],5
same,"Plant response rating, Rape",rape; [1],0
same,Rape plant response rating,rape; [2],0
same,"Plant response rating, Rape",rape; [3],5
same,Rape plant response rating,rape; [4],9
same,Rape plant response rating,rape; [5],5
same,Rape plant response rating,rape; [6],0
same,Rape plant response rating,rape; [7],3
same,Rape plant response rating,rape; [8],9
same,"Plant response rating, B. signalgrass",surinam grass; [1],0
same,B. signalgrass plant response rating,surinam grass; [2],0
same,"Plant response rating, B. signalgrass",surinam grass; [3],3
same,B. signalgrass plant response rating,surinam grass; [4],4
same,B. signalgrass plant response rating,surinam grass; [6],3
same,B. signalgrass plant response rating,surinam grass; [7],7
same,B. signalgrass plant response rating,surinam grass; [8],8
